Measurements published in ChEMBL document CHEMBL1201862, “PubChem BioAssay data set” (2004).
Values joined by “and” are separate entries in the source; they are usually repeats but may differ in a detail not shown here. Equal values may be shown once.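 A five-concentration, 48-hour dose response in 96-well plates underlies each endpoint, interpolated linearly between surrounding concentrations. GI50: concentration for 50% inhibition of growth.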 Active and inactive are the calls of the source. Cut-off read from the data, not from the text of the source: active = GI50 up to about 1.1 µM and inactive = higher.

Assays:
Test in all cases: DTP human tumour cell line panel, 48 h
[1] = tested on: A498
[2] = tested on: ACHN
[3] = tested on: BT-549
[4] = tested on: CCRF-CEM
[5] = tested on: DU-145
[6] = tested on: EKVX
[7] = tested on: HCC 2998
[8] = tested on: HCT-116
[9] = tested on: HCT-15
[10] = tested on: HL-60
[11] = tested on: HOP-62
[12] = tested on: HT-29
[13] = tested on: Hs-578T
[14] = tested on: K562
[15] = tested on: KM12
[16] = tested on: LOX IMVI
[17] = tested on: M14
[18] = tested on: MCF7
[19] = tested on: MDA-MB-231
[20] = tested on: MDA-MB-435
[21] = tested on: MDA-N
[22] = tested on: MOLT-4
[23] = tested on: Malme-3M
[24] = tested on: NCI-H226
[25] = tested on: NCI-H23
[26] = tested on: NCI-H460
[27] = tested on: NCI-H522
[28] = tested on: OVCAR-3
[29] = tested on: OVCAR-5
[30] = tested on: RPMI-8226
[31] = tested on: RXF 393
[32] = tested on: SF-268
[33] = tested on: SF-539
[34] = tested on: SK-MEL-28
[35] = tested on: SK-MEL-2
[36] = tested on: SK-OV-3
[37] = tested on: SN12C
[38] = tested on: SNB-19
[39] = tested on: SNB-75
[40] = tested on: SR
[41] = tested on: T47D
[42] = tested on: TK-10
[43] = tested on: U-251
[44] = tested on: UACC-257
[45] = tested on: UACC-62
[46] = tested on: UO-31
[47] = tested on: A549
[48] = tested on: COLO 205
[49] = tested on: IGROV-1
[50] = tested on: OVCAR-4
[51] = tested on: OVCAR-8
[52] = tested on: PC-3
[53] = tested on: 786-0
[54] = tested on: CAKI-1
[55] = tested on: HOP-92
[56] = tested on: SF-295
[57] = tested on: SK-MEL-5
[58] = tested on: SW-620

With `CCOC(=O)NC(Nc1ncccn1)(C(F)(F)F)C(F)(F)F` the GI50 [1] was > 100 µM (inactive), the GI50 [2] was > 100 µM (inactive) and the GI50 [3] was > 100 µM (inactive). The GI50 [4] was > 100 µM (inactive), the GI50 [5] was > 100 µM (inactive) and the GI50 [6] was > 100 µM (inactive). The GI50 [7] was > 100 µM (inactive), the GI50 [8] was > 100 µM (inactive) and the GI50 [9] was > 100 µM. For the same compound, the GI50 [10] was > 100 µM (inactive), the GI50 [11] was > 100 µM (inactive) and the GI50 [12] was > 100 µM (inactive). The GI50 [13] was > 100 µM (inactive), the GI50 [14] was > 100 µM (inactive) and the GI50 [15] was > 100 µM (inactive). The GI50 [16] was > 100 µM (inactive), the GI50 [17] was > 100 µM (inactive) and the GI50 [18] was > 100 µM (inactive). The GI50 [19] was > 100 µM (inactive), the GI50 [20] was > 100 µM (inactive) and the GI50 [21] was > 100 µM (inactive). The GI50 [22] was > 100 µM (inactive), the GI50 [23] was > 100 µM (inactive) and the GI50 [24] was > 100 µM (inactive). For the same compound, the GI50 [25] was > 100 µM (inactive), the GI50 [26] was > 100 µM (inactive) and the GI50 [27] was > 100 µM (inactive). The GI50 [28] was > 100 µM (inactive), the GI50 [29] was > 100 µM (inactive) and the GI50 [30] was > 100 µM (inactive). For the same compound, the GI50 [31] was > 100 µM (inactive), the GI50 [32] was > 100 µM (inactive) and the GI50 [33] was > 100 µM (inactive). For the same compound, the GI50 [34] was > 100 µM (inactive), the GI50 [35] was > 100 µM (inactive) and the GI50 [36] was > 100 µM (inactive). For the same compound, the GI50 [37] was > 100 µM (inactive), the GI50 [38] was > 100 µM (inactive) and the GI50 [39] was > 100 µM (inactive). For the same compound, the GI50 [40] was > 100 µM (inactive), the GI50 [41] was > 100 µM (inactive) and the GI50 [42] was > 100 µM (inactive). For the same compound, the GI50 [43] was > 100 µM (inactive), the GI50 [44] was > 100 µM (inactive) and the GI50 [45] was > 100 µM (inactive). The GI50 [46] was > 100 µM (inactive).
With `CC(=O)O[C@H]1CC2C(C3CC[C@H](C(C)CCC(=O)O)[C@]31C)[C@H](OC(C)=O)C[C@@H]1CC3(CC[C@]21C)OOC1(CCC(C)CC1)OO3` (stereo partly specified) the GI50 [1] was 15 µM (inactive) and 13 µM (inactive), the GI50 [47] was 1.55 µM (inactive) and 2.82 µM (inactive) and the GI50 [2] was 2.59 µM (inactive) and 4.31 µM (inactive). The GI50 [3] was 3.69 µM (inactive) and 2.74 µM (inactive), the GI50 [4] was 1.67 µM (inactive) and 2.03 µM (inactive) and the GI50 [48] was 2.53 µM (inactive). For the same compound, the GI50 [5] was 3.32 µM (inactive) and 4.98 µM (inactive), the GI50 [6] was 2.08 µM (inactive) and the GI50 [8] was 2.16 µM (inactive) and 4.11 µM (inactive). The GI50 [9] was 2.37 µM and 2.96 µM, the GI50 [10] was 2.97 µM (inactive) and 2.37 µM (inactive) and the GI50 [11] was 3.16 µM (inactive). The GI50 [12] was 2.11 µM (inactive) and 1.81 µM (inactive), the GI50 [13] was 3.4 µM (inactive) and 1.76 µM (inactive) and the GI50 [49] was 2.01 µM (inactive). For the same compound, the GI50 [14] was 3.13 µM (inactive) and 3.9 µM (inactive), the GI50 [16] was 2.15 µM (inactive) and 3.27 µM (inactive) and the GI50 [17] was 3.49 µM (inactive) and 6.67 µM (inactive). The GI50 [18] was 2.96 µM (inactive) and 4.86 µM (inactive), the GI50 [20] was 2.62 µM (inactive) and 4.74 µM (inactive) and the GI50 [21] was 3.77 µM (inactive) and 5.71 µM (inactive). For the same compound, the GI50 [22] was 2.2 µM (inactive) and 1.51 µM (inactive), the GI50 [25] was 2.28 µM (inactive) and 4.31 µM (inactive) and the GI50 [26] was 2.33 µM (inactive) and 3.53 µM (inactive). For the same compound, the GI50 [27] was 2.98 µM (inactive) and 1.61 µM (inactive), the GI50 [50] was 2.56 µM (inactive) and 2.32 µM (inactive) and the GI50 [51] was 1.98 µM (inactive) and 2.85 µM (inactive). The GI50 [52] was 5.15 µM (inactive) and 3.17 µM (inactive), the GI50 [30] was 1.91 µM (inactive) and 2.05 µM (inactive) and the GI50 [31] was 7.82 µM (inactive) and 12.9 µM (inactive). For the same compound, the GI50 [34] was 2.06 µM (inactive) and 1.66 µM (inactive), the GI50 [37] was 2.72 µM (inactive) and 4.18 µM (inactive) and the GI50 [39] was 1.6 µM (inactive). For the same compound, the GI50 [40] was 1.55 µM (inactive), the GI50 [41] was 3.07 µM (inactive) and 2.31 µM (inactive) and the GI50 [43] was 1.76 µM (inactive) and 3.35 µM (inactive). For the same compound, the GI50 [44] was 6.92 µM (inactive) and 11.7 µM (inactive) and the GI50 [46] was 2.61 µM (inactive).
For `CCN(CC)c1ccc2cc(-c3csc(C)n3)c(=O)oc2c1`, the GI50 [53] was 39.2 µM (inactive), the GI50 [47] was > 100 µM (inactive) and the GI50 [2] was 70.3 µM (inactive). For the same compound, the GI50 [3] was 28.2 µM (inactive), the GI50 [54] was > 100 µM (inactive) and the GI50 [4] was > 100 µM (inactive). For the same compound, the GI50 [48] was > 100 µM (inactive), the GI50 [5] was > 100 µM (inactive) and the GI50 [6] was > 100 µM (inactive). The GI50 [7] was 58.5 µM (inactive), the GI50 [8] was 69.8 µM (inactive) and the GI50 [9] was > 100 µM. For the same compound, the GI50 [10] was 95.3 µM (inactive), the GI50 [11] was 30.6 µM (inactive) and the GI50 [55] was 27.4 µM (inactive). For the same compound, the GI50 [12] was 5.75 µM (inactive), the GI50 [13] was 25.7 µM (inactive) and the GI50 [49] was 45.3 µM (inactive). For the same compound, the GI50 [14] was > 100 µM (inactive), the GI50 [15] was 13.5 µM (inactive) and the GI50 [16] was 67.3 µM (inactive). The GI50 [17] was > 100 µM (inactive), the GI50 [18] was > 100 µM (inactive) and the GI50 [19] was 71.8 µM (inactive). The GI50 [20] was 42.9 µM (inactive), the GI50 [21] was 0.719 µM (active) and the GI50 [22] was > 100 µM (inactive). The GI50 [24] was 57.4 µM (inactive), the GI50 [26] was > 100 µM (inactive) and the GI50 [50] was 34.6 µM (inactive). For the same compound, the GI50 [29] was > 100 µM (inactive), the GI50 [52] was 43.5 µM (inactive) and the GI50 [30] was > 100 µM (inactive). The GI50 [31] was 37.3 µM (inactive), the GI50 [32] was 81.3 µM (inactive) and the GI50 [56] was 47 µM (inactive). The GI50 [33] was 77.3 µM (inactive), the GI50 [34] was > 100 µM (inactive) and the GI50 [35] was > 100 µM (inactive). The GI50 [57] was 37.9 µM (inactive), the GI50 [36] was > 100 µM (inactive) and the GI50 [37] was > 100 µM (inactive). The GI50 [38] was 59.7 µM (inactive), the GI50 [39] was 0.0585 µM (active) and the GI50 [40] was 62.2 µM (inactive). For the same compound, the GI50 [58] was > 100 µM (inactive), the GI50 [41] was 2.14 µM (inactive) and the GI50 [42] was 54.7 µM (inactive). The GI50 [43] was 57.7 µM (inactive), the GI50 [44] was 77.8 µM (inactive) and the GI50 [45] was 52.8 µM (inactive). For the same compound, the GI50 [46] was > 100 µM (inactive).
